The NIST ThermoML archive (doi:10.1016/j.tca.2019.178383)

Assay: xn = mol fraction of the nth substance listed
Conditions: for surface tension liquid-gas: Maximal bubble pressure; for mass density: 100 kPa, Liquid, Vibrating tube method

CCn1cc[n+](CCOC)c1.O=S(=O)([O-])C(F)(F)F + CCO
Conditions	mass density [kg/m3]	surface tension liquid-gas [mN/m]
288.15 K, x1 = 0.0996	965.057	23.1
288.15 K, x1 = 0.1999	1071.98	24.2
288.15 K, x1 = 0.2996	1144.79	25.6
288.15 K, x1 = 0.3984	1196.95	27.1
288.15 K, x1 = 0.4991	1237.58	28.7
288.15 K, x1 = 0.6026	1270.25	30.5
288.15 K, x1 = 0.6991	1295.01	31.8
288.15 K, x1 = 0.797	1315.78	33.4
288.15 K, x1 = 0.8995	1333.85	34.9
288.15 K, x1 = 1	1348.94	36.3
293.15 K, x1 = 0.0996	960.722	22.6
293.15 K, x1 = 0.1999	1067.62	23.8
293.15 K, x1 = 0.2996	1140.44	25.2
293.15 K, x1 = 0.3984	1192.61	26.7
293.15 K, x1 = 0.4991	1233.26	28.3
293.15 K, x1 = 0.6026	1265.94	30.1
293.15 K, x1 = 0.6991	1290.72	31.4
293.15 K, x1 = 0.797	1311.49	33.1
293.15 K, x1 = 0.8995	1329.57	34.7
293.15 K, x1 = 1	1344.66	36.1
298.15 K, x1 = 0.0996	956.38	22.1
298.15 K, x1 = 0.1999	1063.27	23.3
298.15 K, x1 = 0.2996	1136.09	24.8
298.15 K, x1 = 0.3984	1188.29	26.3
298.15 K, x1 = 0.4991	1228.95	27.9
298.15 K, x1 = 0.6026	1261.65	29.7
298.15 K, x1 = 0.6991	1286.44	31.1
298.15 K, x1 = 0.797	1307.22	32.8
298.15 K, x1 = 0.8995	1325.31	34.4
298.15 K, x1 = 1	1340.41	35.8
303.15 K, x1 = 0.0996	952.028	21.6
303.15 K, x1 = 0.1999	1058.92	22.8
303.15 K, x1 = 0.2996	1131.76	24.4
303.15 K, x1 = 0.3984	1183.97	25.8
303.15 K, x1 = 0.4991	1224.66	27.5
303.15 K, x1 = 0.6026	1257.38	29.3
303.15 K, x1 = 0.6991	1282.19	30.7
303.15 K, x1 = 0.797	1302.98	32.5
303.15 K, x1 = 0.8995	1321.08	34.1
303.15 K, x1 = 1	1336.17	35.5
308.15 K, x1 = 0.0996	947.665	21.2
308.15 K, x1 = 0.1999	1054.56	22.3
308.15 K, x1 = 0.2996	1127.43	23.9
308.15 K, x1 = 0.3984	1179.66	25.4
308.15 K, x1 = 0.4991	1220.38	27.1
308.15 K, x1 = 0.6026	1253.12	28.9
308.15 K, x1 = 0.6991	1277.95	30.3
308.15 K, x1 = 0.797	1298.75	32
308.15 K, x1 = 0.8995	1316.86	33.8
308.15 K, x1 = 1	1331.96	35.3
313.15 K, x1 = 0.0996	943.285	20.8
313.15 K, x1 = 0.1999	1050.2	21.8
313.15 K, x1 = 0.2996	1123.1	23.5
313.15 K, x1 = 0.3984	1175.37	25
313.15 K, x1 = 0.4991	1216.11	26.7
313.15 K, x1 = 0.6026	1248.89	28.6
313.15 K, x1 = 0.6991	1273.73	30
313.15 K, x1 = 0.797	1294.54	31.8
313.15 K, x1 = 0.8995	1312.66	33.5
313.15 K, x1 = 1	1327.77	35.1
318.15 K, x1 = 0.0996	938.889	20.3
318.15 K, x1 = 0.1999	1045.85	21.4
318.15 K, x1 = 0.2996	1118.78	23
318.15 K, x1 = 0.3984	1171.08	24.6
318.15 K, x1 = 0.4991	1211.87	26.3
318.15 K, x1 = 0.6026	1244.66	28.2
318.15 K, x1 = 0.6991	1269.52	29.6
318.15 K, x1 = 0.797	1290.35	31.5
318.15 K, x1 = 0.8995	1308.47	33.2
318.15 K, x1 = 1	1323.6	34.9
